Patent US5393774A, “Phenylethanolamines, pharmaceutical compositions containing these compounds and process for preparing them” (priority 1990, dated 1995)
Like-named read-outs stand apart in the source and are kept apart here.

System: bronchospasm triggered by intravenous administration of 20 μg/kg of acetyl-choline
Experiment: broncholytic effect, test arrangement according to KONZETT and ROSSLER on anesthetized guinea-pigs
Assay type: in vivo
Settings: Cavia porcellus, read-out: ED50 (broncholytic effect, reduction in acetyl-choline bronchospasm)
[1] = after i.v. administration, anesthetized guinea-pigs, 20 μg/kg acetyl-choline i.v., linear regression analysis

Method: The broncholytic effect was investigated by the test arrangement according to KONZETT and ROSSLER (Arch. exp. Path. Pharmak. 195, 71 (1940)) on anesthetized guinea-pigs. An ED50 was calculated from the average percentage reduction, achieved with the various intravenous doses, in the bronchospasm triggered by intravenous administration of 20 μg/kg of acetyl-choline, by linear regression analysis according to LINDER (Statistische Methoden, 4th Edition, pp. 148-162, Birkhauser, Basel 1964):

Nc1c(Cl)cc(C(O)CNCCCCCCOCCCCc2ccccc2)cc1Cl (stereo not shown) [V]
ED50 [1]: > 400 µg/kg

CCOC(=O)Nc1c(F)cc(C(O)CNCCCCCCOCCCCc2ccccc2)cc1C#N.Cl (stereo not shown) [Substance A, 1-(4-ethoxycarbonylamino-3-cyano-5-fluoro-phenyl)-2-[6-(4-phenyl-butoxy)hexylamino]-ethanol-hydrochloride]
ED50 [1]: 10.2 µg/kg

Cl.N#Cc1cc(C(O)CNCCCCCCOCCCCc2ccccc2)cc(F)c1N (stereo not shown) [Substance B, 1-(4-amino-3-cyano-5-fluoro-phenyl)-2-[6-(4-phenylbutoxy)-hexyl-amino]ethanol-hydrochloride]
ED50 [1]: 2.5 µg/kg

COc1ccc(CC(C)NCC(O)c2cc(F)c(N)c(C#N)c2)cc1.Cl (stereo not shown) [Substance C, 1-(4-amino-3-cyano-5-fluoro-phenyl)-2-[2-(4-methoxyphenyl)-1-methyl-ethylamino]-ethanol-hydrochloride]
ED50: 0.16 µg/kg
